Experimental data: patent US20240139185A1, “COMPOUNDS THAT PARTICIPATE IN COOPERATIVE BINDING AND USES THEREOF” (Revolution Medicines, Inc., priority 2018, published 2024)

Key:
pERK in H358 cells = experiment: pERK inhibition in H358 cells; type: cell-based, human; details: 4 hours treatment, read-out: Cellular pERK inhibition
Protocol: H358 cells (5500 cells) derived from a human lung cancer were plated in a 96 well plate in media (100 uL, RPMI with 10% FBS). After 24 hours, cells were treated for 4 hours with compound or DMSO. Cells were washed twice with room temperature TBS (200 uL) and fixed for 20 minutes with 4% paraformaldehyde diluted with TBS (150 uL). Cells were washed four times for five minutes with 0.1% TritonX/TBS (150 uL) to permeabilize the membrane. Cells were incubated with TBS blocking buffer (100 uL) at room temperature for 60 minutes. Primary antibody (Phospho-p44/42 MAPK (Erk1/2) (Thr202/Tyr204) (D13.14.4E) XP® Rabbit mAb #4370, Cell Signaling Technology; 1:200) was added, and the cells were incubated overnight at 4 C. The cells were washed four times for five minutes with 0.1% Tween 20/TBS (150 uL). Secondary antibody (IRDye® 800CW Goat-Anti-Rabbit IgG, Li-Cor Biosciences; 1:1000) and DRAQ5™ (Invitrogen; 1:2000) was added, and the cells were incubated for 1 hour at room temperature. The cells were washed four times for five minutes with 0.1% Tween 20/TBS (150 uL) and scanned using the LICOR (700 and 800 nm).

cyclophilin A (CYPA) = cyclophilin A (CYPA) (Homo sapiens, UniProt P62937); experiment: CYPA-compound binary complex formation by SPR; details: read-out: CYPA Binding Affinity
Protocol: In order to determine the affinity of compounds of the invention for cyclophilin A (CYPA), we employed surface plasmon resonance binding analysis using the following reagents, instruments and protocol as supplied by the instrument manufacturer.
Reagents and Instrument • 1. Instrument: Biacore S200 (GE Healthcare Life Sciences) • 2. Running buffer: 1×HBS-P+ (1×HBS supplemented with 0.05% Tween20), pH7.4, and 2% DMSO. • 3. Ligand: CypA-Avi • 4. Analyte: Serial dilution of WDB compounds from 50 μM to 0 μM, 2-fold dilution, 10 points (10 mM stock concentration). • 5. Sensor kit: Biotin CAPture Kit (BR28-9202-34, GE Healthcare Life Sciences) • 6. Regeneration buffer: 1 volume of 1 M NaOH and 3 volumes of 8 M guanidine hydrochloride (supplied with CAPture Kit, BR28-9202-34, GE Healthcare Life Sciences)
Experimental Procedure • 1. Capture of CAPreagent: 2 μl/min for 60 seconds. • 2. Immobilization of ligand CypA: Use Fc1 as the reference cell; immobilize CypA at 4 μg/ml using 5 μl/min flowrate on Fc2 (60s), Fc3 (80s) and Fc4 (80s), respectively. • 3. Binding of analytes: Inject WDB compound dilutions sequentially at 50 μl/min for association of 60 seconds. And then let it dissociates in buffer at 50 μl/min for 60 seconds. • 4. Regeneration: 2 injections of regeneration buffer at 30 μl/min for 60 seconds to regenerate the chip surface. • 5. Solvent correction: Run solvent correction at beginning and the end of the run. If run more than 6 compounds, add additional solvent correction every 6 compounds. • 6. Data fitting with built-in Biacore Evaluation Software: Steady-state fitting.

[1] = target: T1, BRAF-GTP-KRAS-G12C complex (Homo sapiens, UniProt P01116+P62937, G12C); experiment: KRAS-BRAF complex disruption through competition with CYPA-compound by TR-FRET; details: biochemical BRAF-KRAS G12C-GTP disruption assay EC50, with CYPA
T1 construct: 50 nM of His6-KRas G12C-GTP (1-169); 500 nM of tagless CypA (1-165)
Protocol: In this example, TR-FRET was used to measure the compound-facilitated disruption of a KRAS-BRAF complex. A mixture of tagless Cyclophilin A, His6-KRAS G12C-GMP-PNP, and GST-BRAF RAS binding domain was added to a 384-well assay plate containing compounds of the invention and incubated for 3 hours. A mixture of Anti-His Eu-W1024 and anti-GST allophycocyanin was then added and the reaction was incubated for an additional 1.5 hours. TR-FRET signal was read on an EnVision microplate reader (Perkin Elmer, Ex 320 nm, Em 665/615 nm). Compounds that facilitate disruption of a KRAS_BRAF complex were identified as those eliciting a decrease in the TR-FRET ratio relative to DMSO control wells. To determine the presenter-dependence of the compound-mediated KRAS-BRAF complex disruption, Cyclophilin A was left out of the initial incubation (see Table 5). To determine G12C specificity of the compound-mediated KRAS-BRAF complex disruption, wild-type KRAS was used instead of G12C KRAS (see Table 5).
Reagents and Instrument • Tagless CYPA; 519 μM in PBS buffer, pH 7.4 • GST BRAF; 110 μM in PBS buffer, pH 7.4 • His6-KRASG12C-GMP-PNP; 50 μM in PBS buffer, pH 7.4 • His6-KRASWT-GMP-PNP; 40 μM in PBS buffer, pH 7.4 • Anti-His Eu-W1024 (LANCE® Eu-W1024; Perkin Elmer) • Anti-GST allophycocyanin (Anti-GST IgG conjugated to SureLight®-Allophycocyanin; Perkin Elmer; Product Number AD0059G) • Test compounds, 10 mM in 100% DMSO • EnVision (Perkin Elmer) • Combi MultiDrop liquid dispenser with 8-channel small volume cassette • 384-well ProxiPlate (black)
Experimental Protocol • 1. Use Mosquito to dispense 100 nL/well of compounds (varying concentration in […]) into 384-well black ProxiPlate to make assay-ready-plate (ARP). • 2. Make assay buffer containing 25 mM Hepes pH 7.3, 100 mM NaCl, 5 mM MgCl2, 0.05% BSA, and 0.002% Tween-20. • 3. Make PRE-MIX A: delivers final concentrations of 50 nM of His6-KRas G12C-GTP (1-169) and 500 nM of tagless CypA (1-165) in assay buffer. • a. For presenter dependence experiments, omit addition of tagless CypA • b. For G12C/wt specificity experiments, substitute His6-KRas WT-GTP (1-169) for His6-KRas G12C-GTP (1-169) • 4. Use MultiDrop Combi to dispense PRE-MIX A into ARP, 7 μl/well. Incubate 3 hr at room temperature. • 5. Make PRE-MIX B: delivers final concentrations of 10 nM of anti-His Eu-W1024 and 50 nM of anti-GST APC. • 6. Use MultiDrop Combi to dispense PRE-MIX B into ARP, 3 μl/well. Shake briefly on Combi and incubate 1.5 hr at room temperature. • 7. Read on EnVision (Ex: 320 nm; Em1: 615 nm; Em2: 665 nm). • 8. Data is processed using Dotmatics. Curves are fit using a 4-parameter non-linear fit to determine the EC50 value for formation of the ternary complex.

Row | IC50 (pERK in H358 cells) | Kd (cyclophilin A (CYPA)) | EC50 [1] | Compound
1 | 1 to 10 µM | > 15 µM | ≤ 0.5 µM | Cc1cc2ccc3cc2n1CC(C)(C)COC(=O)[C@@H]1CCCN(N1)C(=O)[C@@H](NC(=O)[C@H](C(C)C)N(C)C(=O)C1CN(C(=O)CCl)C1)Cc1cc(O)cc-3c1 [Compound 103]
2 | > 10 µM | – | 0.5 to 5 µM | C=CC(=O)N1CC(C(=O)N(C)[C@H](C(=O)N[C@H]2Cc3cc(O)cc(c3)-c3ccc4c(C5CCN(C)CC5)nn(c4c3)CC(C)(C)COC(=O)[C@@H]3CCCN(N3)C2=O)C(C)C)C1 [Compound 232, 1-acryloyl-N-((2S)-1-(((6^3S,4S)-2^5-hydroxy-10,10-dimethyl-1^3-(1-methylpiperidin-4-yl)-5,7-dioxo-6^1,6^2,6^3,6^4,6^5,6^6-hexahydro-1^1H-8-oxa-1(6,1)-indazola-6(1,3)-pyridazina-2(1,3)-benzenacycloundecaphane-4-yl)amino)-3-methyl-1-oxobutan-2-yl)-N-methylazetidine-3-carboxamide]
3 | 1 to 10 µM | ≤ 5 µM | 0.5 to 5 µM | CC#CC(=O)N1CCN(C(=O)N(C)[C@H](C(=O)N[C@H]2Cc3cc(O)cc(c3)-c3ccc4c(C(C)(C)C#N)cn(c4c3)CC(C)(C)COC(=O)[C@@H]3CCCN(N3)C2=O)C(C)C)CC1 [Compound 343]
4 | > 10 µM | ≤ 5 µM | > 5 µM | CCN1C(=O)CCN2C[C@H](C)COC(=O)[C@@H]3CCCN(N3)C(=O)[C@@H](NC(=O)[C@H](C(C)C)N(C)C(=O)C3CN(C(=O)CCl)C3)Cc3cc(O)cc(c3)-c3ccc1c2c3 [Compound 188]
5 | > 10 µM | – | 0.5 to 5 µM | CC(C)[C@@H](C(=O)N[C@H]1Cc2cc(N)cc(c2)-c2ccc3c(C#N)cn(c3c2)CC(C)(C)COC(=O)[C@@H]2CCCN(N2)C1=O)N(C)C(=O)C1CN(C(=O)CCl)C1 [Compound 230, N-((2S)-1-(((6^3S,4S)-2^5-amino-1^3-cyano-10,10-dimethyl-5,7-dioxo-6^1,6^2,6^3,6^4,6^5,6^6-hexahydro-1^1H-8-oxa-1(6,1)-indola-6(1,3)-pyridazina-2(1,3)-benzenacycloundecaphane-4-yl)amino)-3-methyl-1-oxobutan-2-yl)-1-(2-chloroacetyl)-N-methylazetidine-3-carboxamide]
6 | 1 to 10 µM | – | > 5 µM | C=CC(=O)N1CCC(C(=O)N(C)C(C(=O)NC2Cc3cc(O)cc(c3)-c3ccc4c(c3)c(cn4C(C)(C)C#N)CC(C)(C)COC(=O)C3CCCN(N3)C2=O)C2CCCCC2)C1 (centres unmarked) [Compound 396]
7 | > 10 µM | – | ≤ 0.5 µM | CC(C)[C@@H](C(=O)N[C@H]1Cc2cc(O)cc(c2)-c2ccc3c(Cc4cccnc4)cn(c3c2)C[C@H](C)COC(=O)[C@@H]2CCCN(N2)C1=O)N(C)C(=O)C1CN(C(=O)CCl)C1 [Compound 70]
8 | > 10 µM | – | ≤ 0.5 µM | C#Cc1nn2c3cc(ccc13)-c1cc(O)cc(c1)C[C@H](NC(=O)[C@H](C(C)C)N(C)C(=O)C1CN(C(=O)CCl)C1)C(=O)N1CCC[C@H](N1)C(=O)OCC(C)(C)C2 [Compound 233, 1-(2-chloroacetyl)-N-((2S)-1-(((6^3S,4S)-1^3-ethynyl-2^5-hydroxy-10,10-dimethyl-5,7-dioxo-6^1,6^2,6^3,6^4,6^5,6^6-hexahydro-1^1H-8-oxa-1(6,1)-indazola-6(1,3)-pyridazina-2(1,3)-benzenacycloundecaphane-4-yl)amino)-3-methyl-1-oxobutan-2-yl)-N-methylazetidine-3-carboxamide]
9 | 1 to 10 µM | ≤ 5 µM | – | CC1COC(=O)[C@@H]2CCCN(N2)C(=O)[C@@H](NC(=O)[C@H](C(C)C)N(C)C(=O)C2CN(C(=O)CCl)C2)Cc2cc(O)cc(c2)-c2ccc3c(c2)c(cn3CC2COC2)C1 (single isomer, unassigned) [Compound 228]
10 | > 10 µM | ≤ 5 µM | – | C=CC(=O)N1CCN([C@H](C(=O)N[C@H]2Cc3cc(O)cc(c3)-c3ccc4c(C5CCOCC5)cn(c4c3)CCCOC(=O)[C@@H]3CCCN(N3)C2=O)C(C)C)C1=O [Compound 229, (2S)-2-(3-acryloyl-2-oxoimidazolidin-1-yl)-N-((6^3S,4S)-2^5-hydroxy-5,7-dioxo-1^3-(tetrahydro-2H-pyran-4-yl)-6^1,6^2,6^3,6^4,6^5,6^6-hexahydro-1^1H-8-oxa-1(6,1)-indola-6(1,3)-pyridazina-2(1,3)-benzenacycloundecaphane-4-yl)-3-methylbutanamide]
11 | ≤ 1 µM | ≤ 5 µM | – | CC1COC(=O)C2CCCN(N2)C(=O)C(NC(=O)C(C(C)C)N(C)C(=O)C2CN(C(=O)CCl)C2)Cc2cc(O)cc(c2)-c2ccc3c(-c4ccccc4C#N)cn(c3c2)C1 [Compound 5, 1-(2-chloroacetyl)-N-((2S)-1-(((6^3S,4S,10S)-1^3-(2-cyanophenyl)-2^5-hydroxy-10-methyl-5,7-dioxo-6^1,6^2,6^3,6^4,6^5,6^6-hexahydro-1^1H-8-oxa-1(6,1)-indola-6(1,3)-pyridazina-2(1,3)-benzenacycloundecaphane-4-yl)amino)-3-methyl-1-oxobutan-2-yl)-N-methylazetidine-3-carboxamide]
12 | > 10 µM | 5 to 15 µM | – | CC1COC(=O)[C@@H]2CCCN(N2)C(=O)[C@@H](NC(=O)[C@H](C(C)C)N(C)C(=O)C2CN(C(=O)CCl)C2)Cc2cc(O)cc(c2)-c2ccc3c(c2)c(cn3CC2COC2)C1 (single isomer, unassigned) [Compound 227]
13 | 1 to 10 µM | – | ≤ 0.5 µM | CC(C)[C@@H](C(=O)N[C@H]1Cc2cc(O)cc(c2)-c2ccc3c(-c4cccnc4)cn(c3c2)C[C@H](C)COC(=O)[C@@H]2CCCN(N2)C1=O)N(C)C(=O)C1CN(C(=O)CCl)C1 [Compound 51]
